Numbers after ± are expanded uncertainties.
Legend:
[1] = xn = mol fraction of the nth substance listed; conditions: 298.15 K; for surface tension liquid-gas: Pendant drop shape; for mass density: 101.3 kPa, Liquid
[2] = 298.15 K; for surface tension liquid-gas: Pendant drop shape; for mass density: 101.33 kPa, Liquid

Cc1ccc(C)c(C)c1 [1,2,4-trimethylbenzene] + CCC(C)O
surface tension liquid-gas ([1]; x2 = 0.1008): 28.58 ± 0.32 mN/m
surface tension liquid-gas ([1]; x2 = 0.201): 27.94 ± 0.31 mN/m
surface tension liquid-gas ([1]; x2 = 0.2985): 27.32 ± 0.3 mN/m
surface tension liquid-gas ([1]; x2 = 0.4008): 26.71 ± 0.29 mN/m
surface tension liquid-gas ([1]; x2 = 0.4997): 26.15 ± 0.29 mN/m
surface tension liquid-gas ([1]; x2 = 0.6008): 25.59 ± 0.28 mN/m
surface tension liquid-gas ([1]; x2 = 0.6994): 25.07 ± 0.27 mN/m
surface tension liquid-gas ([1]; x2 = 0.7999): 24.56 ± 0.27 mN/m
surface tension liquid-gas ([1]; x2 = 0.9002): 24.02 ± 0.26 mN/m
mass density ([1]; x2 = 0.0497): 868.48 ± 0.37 kg/m3
mass density ([1]; x2 = 0.1008): 865.35 ± 0.36 kg/m3
mass density ([1]; x2 = 0.1486): 862.53 ± 0.35 kg/m3
mass density ([1]; x2 = 0.201): 859.43 ± 0.33 kg/m3
mass density ([1]; x2 = 0.2507): 856.46 ± 0.32 kg/m3
mass density ([1]; x2 = 0.2985): 853.6 ± 0.31 kg/m3
mass density ([1]; x2 = 0.3492): 850.47 ± 0.3 kg/m3
mass density ([1]; x2 = 0.4008): 847.25 ± 0.29 kg/m3
mass density ([1]; x2 = 0.4506): 844.12 ± 0.28 kg/m3
mass density ([1]; x2 = 0.4997): 840.93 ± 0.27 kg/m3
mass density ([1]; x2 = 0.5486): 837.68 ± 0.26 kg/m3
mass density ([1]; x2 = 0.6008): 834.12 ± 0.25 kg/m3
mass density ([1]; x2 = 0.6505): 830.64 ± 0.24 kg/m3
mass density ([1]; x2 = 0.6994): 827.12 ± 0.24 kg/m3
mass density ([1]; x2 = 0.7503): 823.25 ± 0.23 kg/m3
mass density ([1]; x2 = 0.7999): 819.39 ± 0.23 kg/m3
mass density ([1]; x2 = 0.8496): 815.42 ± 0.22 kg/m3
mass density ([1]; x2 = 0.9002): 811.21 ± 0.22 kg/m3
mass density ([1]; x2 = 0.9489): 806.96 ± 0.22 kg/m3

CC(C)(C)O [2-methylpropan-2-ol]
surface tension liquid-gas [2]: 20.13 ± 0.23 mN/m
mass density [2]: 780.85 ± 0.25 kg/m3

CC(C)CO [2-methyl-1-propanol]
surface tension liquid-gas [2]: 22.3 ± 0.25 mN/m
mass density [2]: 797.83 ± 0.23 kg/m3

Cc1cc(C)cc(C)c1 [1,3,5-trimethylbenzene] + CCCCO
surface tension liquid-gas ([1]; x2 = 0.1006): 27.92 ± 0.31 mN/m
surface tension liquid-gas ([1]; x2 = 0.2011): 27.65 ± 0.3 mN/m
surface tension liquid-gas ([1]; x2 = 0.3002): 27.33 ± 0.3 mN/m
surface tension liquid-gas ([1]; x2 = 0.4003): 26.91 ± 0.29 mN/m
surface tension liquid-gas ([1]; x2 = 0.5001): 26.46 ± 0.29 mN/m
surface tension liquid-gas ([1]; x2 = 0.6005): 25.99 ± 0.28 mN/m
surface tension liquid-gas ([1]; x2 = 0.6993): 25.53 ± 0.28 mN/m
surface tension liquid-gas ([1]; x2 = 0.7999): 25.05 ± 0.27 mN/m
surface tension liquid-gas ([1]; x2 = 0.901): 24.58 ± 0.27 mN/m
mass density ([1]; x2 = 0.0493): 858.72 ± 0.34 kg/m3
mass density ([1]; x2 = 0.1006): 856.4 ± 0.33 kg/m3
mass density ([1]; x2 = 0.1512): 854.14 ± 0.32 kg/m3
mass density ([1]; x2 = 0.2011): 851.93 ± 0.31 kg/m3
mass density ([1]; x2 = 0.2514): 849.67 ± 0.3 kg/m3
mass density ([1]; x2 = 0.3002): 847.43 ± 0.29 kg/m3
mass density ([1]; x2 = 0.3487): 845.16 ± 0.28 kg/m3
mass density ([1]; x2 = 0.4003): 842.68 ± 0.27 kg/m3
mass density ([1]; x2 = 0.4535): 840.04 ± 0.27 kg/m3
mass density ([1]; x2 = 0.5001): 837.66 ± 0.26 kg/m3
mass density ([1]; x2 = 0.5484): 835.11 ± 0.25 kg/m3
mass density ([1]; x2 = 0.6005): 832.26 ± 0.25 kg/m3
mass density ([1]; x2 = 0.65): 829.43 ± 0.24 kg/m3
mass density ([1]; x2 = 0.6993): 826.54 ± 0.24 kg/m3
mass density ([1]; x2 = 0.7497): 823.44 ± 0.23 kg/m3
mass density ([1]; x2 = 0.7999): 820.23 ± 0.23 kg/m3
mass density ([1]; x2 = 0.85): 816.86 ± 0.23 kg/m3
mass density ([1]; x2 = 0.901): 813.3 ± 0.22 kg/m3
mass density ([1]; x2 = 0.9506): 809.67 ± 0.22 kg/m3

Cc1ccc(C)c(C)c1 [1,2,4-trimethylbenzene] + CC(C)(C)O
surface tension liquid-gas ([1]; x2 = 0.1): 28.12 ± 0.31 mN/m
surface tension liquid-gas ([1]; x2 = 0.2007): 27 ± 0.3 mN/m
surface tension liquid-gas ([1]; x2 = 0.3001): 25.92 ± 0.29 mN/m
surface tension liquid-gas ([1]; x2 = 0.4002): 24.93 ± 0.28 mN/m
surface tension liquid-gas ([1]; x2 = 0.5005): 24.06 ± 0.27 mN/m
surface tension liquid-gas ([1]; x2 = 0.6006): 23.23 ± 0.26 mN/m
surface tension liquid-gas ([1]; x2 = 0.6991): 22.46 ± 0.26 mN/m
surface tension liquid-gas ([1]; x2 = 0.7993): 21.7 ± 0.25 mN/m
surface tension liquid-gas ([1]; x2 = 0.9003): 20.96 ± 0.24 mN/m
mass density ([1]; x2 = 0.0498): 867.42 ± 0.47 kg/m3
mass density ([1]; x2 = 0.1): 863.45 ± 0.47 kg/m3
mass density ([1]; x2 = 0.1496): 859.56 ± 0.46 kg/m3
mass density ([1]; x2 = 0.2007): 855.56 ± 0.46 kg/m3
mass density ([1]; x2 = 0.2495): 851.7 ± 0.45 kg/m3
mass density ([1]; x2 = 0.3001): 847.58 ± 0.45 kg/m3
mass density ([1]; x2 = 0.351): 843.33 ± 0.45 kg/m3
mass density ([1]; x2 = 0.4002): 839.16 ± 0.45 kg/m3
mass density ([1]; x2 = 0.4496): 834.81 ± 0.44 kg/m3
mass density ([1]; x2 = 0.5005): 830.25 ± 0.44 kg/m3
mass density ([1]; x2 = 0.5494): 825.78 ± 0.44 kg/m3
mass density ([1]; x2 = 0.6006): 821.1 ± 0.44 kg/m3
mass density ([1]; x2 = 0.6502): 816.48 ± 0.45 kg/m3
mass density ([1]; x2 = 0.6991): 811.94 ± 0.45 kg/m3
mass density ([1]; x2 = 0.7491): 807.12 ± 0.45 kg/m3
mass density ([1]; x2 = 0.7993): 802.21 ± 0.45 kg/m3
mass density ([1]; x2 = 0.85): 797.46 ± 0.46 kg/m3
mass density ([1]; x2 = 0.9003): 791.86 ± 0.46 kg/m3
mass density ([1]; x2 = 0.9499): 786.65 ± 0.47 kg/m3

Cc1cc(C)cc(C)c1 [1,3,5-trimethylbenzene] + CCC(C)O
surface tension liquid-gas ([1]; x2 = 0.101): 27.77 ± 0.31 mN/m
surface tension liquid-gas ([1]; x2 = 0.2007): 27.36 ± 0.3 mN/m
surface tension liquid-gas ([1]; x2 = 0.2986): 26.94 ± 0.29 mN/m
surface tension liquid-gas ([1]; x2 = 0.4007): 26.47 ± 0.29 mN/m
surface tension liquid-gas ([1]; x2 = 0.5017): 25.99 ± 0.28 mN/m
surface tension liquid-gas ([1]; x2 = 0.6004): 25.49 ± 0.28 mN/m
surface tension liquid-gas ([1]; x2 = 0.6991): 24.98 ± 0.27 mN/m
surface tension liquid-gas ([1]; x2 = 0.8009): 24.45 ± 0.27 mN/m
surface tension liquid-gas ([1]; x2 = 0.9002): 23.94 ± 0.26 mN/m
mass density ([1]; x2 = 0.0508): 858.12 ± 0.34 kg/m3
mass density ([1]; x2 = 0.101): 855.38 ± 0.33 kg/m3
mass density ([1]; x2 = 0.1511): 852.75 ± 0.32 kg/m3
mass density ([1]; x2 = 0.2007): 850.14 ± 0.31 kg/m3
mass density ([1]; x2 = 0.25): 847.61 ± 0.3 kg/m3
mass density ([1]; x2 = 0.2986): 845.03 ± 0.29 kg/m3
mass density ([1]; x2 = 0.3488): 842.36 ± 0.28 kg/m3
mass density ([1]; x2 = 0.4007): 839.55 ± 0.27 kg/m3
mass density ([1]; x2 = 0.4495): 836.88 ± 0.26 kg/m3
mass density ([1]; x2 = 0.5017): 833.96 ± 0.26 kg/m3
mass density ([1]; x2 = 0.5484): 831.33 ± 0.25 kg/m3
mass density ([1]; x2 = 0.6004): 828.33 ± 0.24 kg/m3
mass density ([1]; x2 = 0.6508): 825.34 ± 0.24 kg/m3
mass density ([1]; x2 = 0.6991): 822.4 ± 0.23 kg/m3
mass density ([1]; x2 = 0.7496): 819.25 ± 0.23 kg/m3
mass density ([1]; x2 = 0.8009): 816.01 ± 0.23 kg/m3
mass density ([1]; x2 = 0.8504): 812.75 ± 0.22 kg/m3
mass density ([1]; x2 = 0.9002): 809.42 ± 0.22 kg/m3
mass density ([1]; x2 = 0.9505): 805.99 ± 0.22 kg/m3
